For orientation: IC50 means the concentration that inhibits the measured activity by half. Lower therefore signals greater potency in that assay. As usually defined, the Kd is the free concentration of one partner at which half of the binding sites on the other are occupied at equilibrium, for simple one-to-one binding.

In ChEMBL document CHEMBL5532663, “Discovery of Potent and Selective Phosphatidylinositol 3-Phosphate 5-Kinase (PIKfyve) Inhibitors as Methuosis Inducers” (J Med Chem, 2024) one finds IC50 and Kd data, which are given here for 4 compounds.

The subject of one assay is MDA-MB-231. Put plainly: cells. To be noted: Homo sapiens, MDA-MB-231, 24 h.
In another assay the test system is HeLa. Put plainly: cells. To be noted: Homo sapiens, 24 h.
Assay [1] deals with T1, 1-phosphatidylinositol 3-phosphate 5-kinase (Homo sapiens, UniProt Q9Y2I7).
Assay [2] has as its target T1, 1-phosphatidylinositol 3-phosphate 5-kinase. Put plainly: Binding affinity to PIKfyve (unknown origin) assessed as dissociation constant by KINOMEscan profiling method.

Each structure is given as a SMILES string.

T1 sequence (Q9Y2I7 whole entry): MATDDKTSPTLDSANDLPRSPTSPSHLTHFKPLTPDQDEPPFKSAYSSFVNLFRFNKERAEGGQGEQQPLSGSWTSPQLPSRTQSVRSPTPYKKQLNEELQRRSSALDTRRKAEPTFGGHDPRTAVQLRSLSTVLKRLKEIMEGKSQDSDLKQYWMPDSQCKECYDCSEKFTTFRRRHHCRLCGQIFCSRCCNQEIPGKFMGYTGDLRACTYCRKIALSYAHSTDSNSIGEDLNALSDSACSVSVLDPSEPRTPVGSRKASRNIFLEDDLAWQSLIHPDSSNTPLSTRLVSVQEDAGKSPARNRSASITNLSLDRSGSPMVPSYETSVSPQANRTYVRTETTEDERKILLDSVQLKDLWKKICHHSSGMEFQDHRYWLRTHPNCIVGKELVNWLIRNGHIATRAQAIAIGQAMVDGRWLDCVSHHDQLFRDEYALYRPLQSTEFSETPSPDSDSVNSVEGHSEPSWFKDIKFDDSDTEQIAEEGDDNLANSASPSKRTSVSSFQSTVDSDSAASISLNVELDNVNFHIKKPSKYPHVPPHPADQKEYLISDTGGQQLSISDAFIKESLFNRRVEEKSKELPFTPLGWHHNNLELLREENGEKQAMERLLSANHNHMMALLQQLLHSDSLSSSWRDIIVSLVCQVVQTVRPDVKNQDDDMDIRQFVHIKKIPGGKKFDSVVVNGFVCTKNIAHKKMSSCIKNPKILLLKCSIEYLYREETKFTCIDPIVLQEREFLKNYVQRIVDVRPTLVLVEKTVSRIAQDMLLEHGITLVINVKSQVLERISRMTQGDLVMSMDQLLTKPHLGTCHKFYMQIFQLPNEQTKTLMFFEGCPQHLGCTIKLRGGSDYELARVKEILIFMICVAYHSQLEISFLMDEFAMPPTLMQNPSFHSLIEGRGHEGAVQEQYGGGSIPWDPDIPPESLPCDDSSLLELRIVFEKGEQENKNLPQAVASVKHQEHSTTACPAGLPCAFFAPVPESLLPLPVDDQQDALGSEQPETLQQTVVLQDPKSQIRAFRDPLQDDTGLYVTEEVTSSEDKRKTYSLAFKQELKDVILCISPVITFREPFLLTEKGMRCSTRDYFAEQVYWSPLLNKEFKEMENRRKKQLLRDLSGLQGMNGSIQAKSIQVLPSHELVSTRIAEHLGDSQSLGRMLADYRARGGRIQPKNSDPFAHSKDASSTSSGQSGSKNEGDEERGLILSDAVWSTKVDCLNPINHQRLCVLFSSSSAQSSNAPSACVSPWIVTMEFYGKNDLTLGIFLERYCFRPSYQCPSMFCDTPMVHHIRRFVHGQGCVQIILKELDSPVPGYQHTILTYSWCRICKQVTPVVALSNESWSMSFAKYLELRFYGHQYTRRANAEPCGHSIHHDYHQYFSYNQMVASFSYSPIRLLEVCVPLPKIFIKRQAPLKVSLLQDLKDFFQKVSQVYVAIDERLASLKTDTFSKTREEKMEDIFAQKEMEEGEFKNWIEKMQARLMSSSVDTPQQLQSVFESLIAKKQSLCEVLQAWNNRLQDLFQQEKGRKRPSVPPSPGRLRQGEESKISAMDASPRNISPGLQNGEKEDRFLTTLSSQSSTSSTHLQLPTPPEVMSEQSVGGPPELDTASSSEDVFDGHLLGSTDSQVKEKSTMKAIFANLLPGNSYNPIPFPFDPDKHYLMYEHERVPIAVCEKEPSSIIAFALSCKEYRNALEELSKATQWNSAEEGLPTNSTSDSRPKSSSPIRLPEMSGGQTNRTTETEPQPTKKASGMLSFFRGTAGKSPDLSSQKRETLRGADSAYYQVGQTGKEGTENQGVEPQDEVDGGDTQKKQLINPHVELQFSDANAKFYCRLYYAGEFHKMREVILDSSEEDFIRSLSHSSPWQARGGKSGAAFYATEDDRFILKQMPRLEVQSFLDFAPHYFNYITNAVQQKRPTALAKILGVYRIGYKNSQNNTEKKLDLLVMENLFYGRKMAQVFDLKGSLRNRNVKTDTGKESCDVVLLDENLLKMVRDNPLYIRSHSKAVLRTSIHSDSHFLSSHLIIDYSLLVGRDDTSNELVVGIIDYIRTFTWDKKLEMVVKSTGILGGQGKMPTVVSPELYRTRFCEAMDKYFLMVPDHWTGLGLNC
Description for HeLa: Antiproliferative activity against human HeLa cells assessed as inhibition of cell viability incubated for 24 hrs by CCK8 assay
Description for MDA-MB-231: Antiproliferative activity against human MDA-MB-231 cells assessed as inhibition of cell viability incubated for 24 hrs by CCK8 assay

For the compound `Cc1cccc(/C=N/Nc2cc(N3CCOCC3)nc(OCCc3ccccn3)n2)c1` [APILIMOD], the results for the 50% inhibitory concentration (IC50) with MDA-MB-231 and in the assay with HeLa were 100 nM and 140 nM, respectively.
Regarding `Nc1ncnc2c1c(-c1cc3ccccc3o1)cn2[C@H]1CC[C@@H](N)CC1`, the half-maximal inhibitory concentration (IC50) was 350 nM with MDA-MB-231 and 430 nM in the assay on HeLa. Moreover, in assay [1], the affinity, expressed as Kd, was 1.65 nM.
As for `Nc1ncnc2c1c(-c1coc3ccccc13)cn2[C@H]1CC[C@@H](N)CC1`, the IC50 in the assay on MDA-MB-231 and in the assay on HeLa was above 5000 nM in each case.
With `COc1ccc2[nH]c(C)c(/C=C/C(=O)c3ccncc3)c2c1`, the Kd in assay [2] turned out to be 5.3 nM; in assay [1], 3.75 nM.
